Data taken from article PMC9050923, “6,N^2-Diaryl-1,3,5-triazine-2,4-diamines: synthesis, antiproliferative activity and 3D-QSAR modeling” (RSC Advances, 2020).

What was measured:
[1] = test system: MDA-MB231; test: MTT assay, MDA-MB231 breast cancer cells; assay type: cell-based; conditions: Homo sapiens, MDA-MB-231; for viability at 10 µM: 72 h after the treatment, MTT, mean of three independent experiments, read-out: Percentage of cell viability MDA-MB231
Summary of the method: (§1)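 Cells seeded 24 h at 37 °C, 5% CO2, then treated 72 h with a concentration range; single-point screen at 10 μM gave % viability. MTT (0.5 mg/mL, 4 h), DMSO-solubilised, A570; GI50 from sigmoidal curves, mean of three experiments.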

[2] = test system: SKBR-3; test: MTT assay, SKBR-3 breast cancer cells; assay type: cell-based; conditions: Homo sapiens, SK-BR-3; 10 μM, 72 h after the treatment, MTT, mean of three independent experiments; read-out: Percentage of cell viability SKBR-3
Summary of the method: as §1

[3] = test system: MCF-7; test: MTT assay, MCF-7 breast cancer cells; assay type: cell-based; conditions: Homo sapiens, MCF7, 10 μM, 72 h after the treatment, mean of three independent experiments, read-out: Percentage of cell viability MCF-7
Summary of the method: as §1

Structure (SMILES) | melting point [°C] | viability at 10 µM [1] [%] | viability at 10 µM [2] [%] | viability at 10 µM [3] [%] | GI50 ([1]; −log[GI50], MDA-MB231, read-out: Experimental pGI50 (converted)) [µM]
Nc1nc(Nc2ccccc2Cl)nc(-c2ccccc2)n1 (hydrate or solvate) [Compound 4, N ^2-(2-Chlorophenyl)-6-phenyl-1,3,5-triazine-2,4-diamine] | 82 to 84 |  |  |  | 
Cc1cccc(-c2nc(N)nc(Nc3ccc(F)cc3)n2)c1 (hydrate or solvate) [Compound 53, N ^2-(4-Fluorophenyl)-6-(3-methylphenyl)-1,3,5-triazine-2,4-diamine] | 138 to 139 |  |  |  | 
COc1ccc(Nc2nc(N)nc(-c3cccc(C)c3)n2)cc1 (hydrate or solvate) [Compound 57, N ^2-(4-Methoxyphenyl)-6-(3-methylphenyl)-1,3,5-triazine-2,4-diamine] | 150 to 152 |  |  |  | 
Cc1cccc(-c2nc(N)nc(Nc3ccc(C(C)C)cc3)n2)c1 (hydrate or solvate) [Compound 59, N ^2-(4-Isopropylphenyl)-6-(3-methylphenyl)-1,3,5-triazine-2,4-diamine] | 134 to 136 |  |  |  | 
Nc1nc(Nc2ccccc2F)nc(-c2cccs2)n1 (hydrate or solvate) [Compound 116, N ^2-(2-Fluorophenyl)-6-(thiophen-2-yl)-1,3,5-triazine-2,4-diamine] | 165 to 167 |  |  |  | 
COc1ccc(Nc2nc(N)nc(-c3cccs3)n2)cc1 (hydrate or solvate) [Compound 123, N ^2-(4-Methoxyphenyl)-6-(thiophen-2-yl)-1,3,5-triazine-2,4-diamine] | 139 to 141 |  |  |  | 
Nc1nc(Nc2ccccc2F)nc(-c2ccccc2)n1 [Compound 2, N ^2-(2-Fluorophenyl)-6-phenyl-1,3,5-triazine-2,4-diamine] | 156 to 158 | 82 | 83 | 99 | 
Nc1nc(Nc2ccc(F)cc2)nc(-c2ccccc2)n1 [Compound 3, N ^2-(4-Fluorophenyl)-6-phenyl-1,3,5-triazine-2,4-diamine] | 172 to 174 | 81 | 84 | 100 | 
COc1ccc(Nc2nc(N)nc(-c3ccc(F)cc3)n2)cc1 [Compound 30, 6-(4-Fluorophenyl)-N^2-(4-methoxyphenyl)-1,3,5-triazine-2,4-diamine] | 158 to 160 | 74 | 90 | 92 | 
Nc1nc(Nc2ccccc2)nc(-c2ccc(Cl)cc2)n1 [Compound 34, 6-(4-Chlorophenyl)-N^2-phenyl-1,3,5-triazine-2,4-diamine] | 154 to 156 | 81 | 100 | 100 | 
COc1ccc(Nc2nc(N)nc(-c3ccc(OC)cc3)n2)cc1 [Compound 71, N ^2,6-Bis(4-methoxyphenyl)-1,3,5-triazine-2,4-diamine] | 163 to 165 | 56 | 93 | 95 | 14.1
Nc1nc(Nc2ccc(F)cc2)nc(-c2ccc(C(F)(F)F)cc2)n1 [Compound 84, N ^2-(4-Fluorophenyl)-6-(4-(trifluoromethyl)phenyl)-1,3,5-triazine-2,4-diamine] | 150 to 152 | 95 | 98 | 100 | 
Nc1nc(Nc2ccc(F)cc2)nc(-c2ccc(OC(F)(F)F)cc2)n1 [Compound 91, N ^2-(4-Fluorophenyl)-6-(4-(trifluoromethoxy)phenyl)-1,3,5-triazine-2,4-diamine] | 139 to 140 | 53 | 86 | 100 | 
Nc1nc(Nc2ccc(F)cc2)nc(-c2ccc(OCc3ccccc3)cc2)n1 [Compound 111, 6-(4-(Benzyloxy)phenyl)-N^2-(4-fluorophenyl)-1,3,5-triazine-2,4-diamine] | 177 to 179 | 69 | 84 | 89 | 
COc1ccccc1Nc1nc(N)nc(-c2cccs2)n1 [Compound 122, N ^2-(2-Methoxyphenyl)-6-(thiophen-2-yl)-1,3,5-triazine-2,4-diamine] | 165 to 167 | 78 | 97 | 91 | 
